Entries after “also recorded” stand apart in the source; their conditions may differ. Like-named read-outs stand apart in the source and are kept apart here. Residues, ends and D or L forms follow the SMILES beside them. *: point of attachment. Cbz = O=C(OCc1ccccc1)*
Legend:
[1] = test system: rat cortical neuronal cultures; assay: Rapid ischemic tolerance: cell death after harmful ischemia (OGD) with preconditioning ischemia, propidium iodide staining; assay type: cell-based; conditions: for rapid ischemic tolerance: neuronal cultures, preconditioning ischemia; for neuroprotective effect of preconditioning: 10 μM, one hour incubation following 30 minutes of preconditioning OGD, cell death 24 hours after 120 minutes of harmful ischemia
Procedure: (§1) Neurons were exposed to ischemic conditions, namely, oxygen and glucose deprivation (OGD), by washing the cells with phosphate-buffered saline (NaCl ([…]), KCl (2.7 mM), Na2HPO4 (10 mM), KH2PO4 (1.7 mM), pH 7.4) supplemented with 0.5 mM CaCl2, 1.0 mM MgCl2 and placing the cells (in culture dishes) in an anaerobic chamber (85% N2, 5% H2, 10% CO2; 35° C.) for 30 minutes (preconditioning ischemia) or 120 minutes (harmful ischemia).
Cell death was assessed 24 hours following 120 minutes of harmful ischemia using propidium iodide staining. Data shown are mean±S.E. (n=8). Data were analyzed by one-way ANOVA, with Bonferroni's post-hoc test. *, p<0.05.
Cells were incubated for one hour following 30 minutes of preconditioning OGD with either PD98059 or U0126 (both 10 μM), which are compounds that prevent p42/p44 MAPK activation by inhibiting an upstream regulatory MAPK kinase (MEK).

[2] = test system: Bim protein; assay: Bim protein levels by immunoblot following preconditioning ischemia; assay type: cell-based, rat; conditions: for Bim degradation: following preconditioning ischemia
Procedure: as §1
Bim protein levels were determined by immunoblotting, and then the blots were re-probed with α-tubulin to control for loading.
(§2) In the top and middle panels of the figure, phosphorylation of p42/p44 MAPK was determined by immunoblot, and the blots were re-probed for total p42/p44 MAPK expression. In the bottom panel of the figure, cells were subjected to preconditioning ischemia and then recovered in the presence of U0126. Bim expression was determined by immunoblot. Data shown are representative of three independent experiments.
The effect of U0126 on Bim protein levels also was investigated following 30 minutes of OGD.

[3] = test system: p42/p44 MAPK
Procedure: as §2
As a control, the same blot was probed for non-phospho-p42/p44 MAPK.

[4] = test system: Bim; conditions: following preconditioning ischemia
Excerpt: The experiments described in this example investigate the degradation of the pro-apoptotic Bcl-2 family member Bim as a mechanism of rapid ischemic tolerance.

[5] = test system: HCC1419 cells; assay: Cell death as LDH release (absorbance at 492 nm) in HCC1419 cells; assay type: cell-based; conditions: for EC50: Homo sapiens, LDH release
Procedure: (§3) The stabilization of Bim in cells by blocking Bim degradation may sensitize the cells to an additional anti-cancer agent and promote cell death. […] Cell death was measured as a release of the enzyme lactate dehydrogenase (LDH), which is detected as absorbance at 492 nm.
(§4) Cells were incubated with various concentrations of doxorubicin (μM) for 72 h, in the absence (solid squares) or presence (open circles) of 100 μM U0126.

[6] = test system: MCF-7 cells; assay: Cell death as LDH release (absorbance at 492 nm) in MCF-7 cells; assay type: cell-based; conditions: 100 μM U0126
Procedure: as §3, §4

[7] = test system: GST-Bim polypeptide with TRIM2 protein; conditions: cells incubated with inhibitor, preconditioning ischemia
Procedure: To follow up on this observation, co-immunoprecipitation was utilized to determine whether TRIM2 binding to Bim correlates with the degradation of Bim following preconditioning ischemia in neuronal cultures. GST-Bim was incubated with cell lysates from control neurons (“CONT”; open bars) and neurons exposed to preconditioning ischemia (“PC”; hatched bars). GST-Bim interacting with TRIM2 then was co-immunoprecipitated with anti-TRIM 2 antibody and detected by immunoblot with an anti-GST antibody.

CC(C)C[C@@H](C=O)NC(=O)[C@H](CC(C)C)NC(=O)[C@H](CC(C)C)NC(=O)OCc1ccccc1 [MG-132] (Cbz-Leu-Leu-Leu-aldehyde)
rapid ischemic tolerance [1]: blocked rapid ischemic tolerance | Bim degradation [2]: prevented Bim degradation

COc1cccc(-c2cc(=O)c3ccccc3o2)c1N [PD98059, 2-(2-Amino-3-methoxyphenyl)-4H-1-benzopyran-4-one]
neuroprotective effect of preconditioning [1]: blocked

N#CC(=C(/N)Sc1ccccc1N)/C(C#N)=C(\N)Sc1ccccc1N [U0126, 1,4-diamino-2,3-dicyano-1,4-bis(2-aminophenylthio)butadiene]
neuroprotective effect of preconditioning [1]: blocked | rapid ischemic tolerance [1]: blocked rapid ischemic tolerance; also recorded: blocks | Bim protein expression in control-treated cells ([2]; control-treated cells, no preconditioning): no effect | Bim degradation [2]: reduced; also recorded: blocks | decrease in Bim protein expression at one hour following 30 minutes of preconditioning ischemia ([2]; recovery in the presence of U0126): blocked | phosphorylation of MAPK in control cells ([3]; control cells treated with U0126 alone): no phosphorylation of MAPK | total levels of p42/p44 MAPK ([3]; following preconditioning ischemia or U0126 treatment): did not change | increase in p42/p44 MAPK phosphorylation following preconditioning ischemia ([3]; one hour following preconditioning ischemia): blocked | Bim ubiquitination [4]: reduced | enhancement of doxorubicin-induced cell death ([5]; HCC1419 cells (low Bim:TRIM2 ratio), 100 μM U0126): enhancement | cell death (LDH release) ([5]; HCC1419 cells, U0126 alone): does not induce cell death | enhancement of doxorubicin-induced cell death ([6]; MCF-7 cells (high Bim:TRIM2 ratio)): not observed | co-immunoprecipitation of GST-Bim polypeptide with TRIM2 protein [7]: reduced

COc1cccc2c1C(=O)c1c(O)c3c(c(O)c1C2=O)C[C@@](O)(C(=O)CO)C[C@@H]3O[C@H]1C[C@H](N)[C@H](O)[C@H](C)O1 [doxorubicin]
shift in the response to doxorubicin when U0126 is present ([5]; HCC1419 cells, 72 h, 100 μM U0126): leftward shift | EC50 ([5]; HCC1419 cells, 72 h, absence of U0126, read-out: calculated EC50 of doxorubicin alone): 60 µM | EC50 ([5]; HCC1419 cells, 72 h, presence of 100 μM U0126, read-out: calculated EC50 of doxorubicin when combined with U0126): 0.01 µM | responsiveness to combination of doxorubicin and U0126 relative to doxorubicin alone ([6]; MCF-7 cells, 72 h): no increased responsiveness

Reference: patent US8304202B2, “Interaction of BIM with TRIM2” (priority 2007, dated 2012)
